The values below come from paper PMC12516390 (ACS Medicinal Chemistry Letters, 2025).

≈ marks a conversion by molar mass, not a printed value. Where only a bound is given, the exact number is not on record here.

In data set [1] the target is Human Recombinant Cathepsin L (Homo sapiens, UniProt P07711). Nature of the data set: Cathepsin selectivity screening, Cat L (Z-Phe-Arg-AMC). In kind it is biochemical. Conditions: Z-Phe-Arg-AMC substrate; Table 5; read-out: IC50 (μM) CatL.
Data set [2] can be described thus: physchem. The settings on record: pH 7.4.
A short description of data set [3]: in vitro. Conditions: African monkey.
Data set [4] can be described thus: in vitro. Conditions: human, microsomes, pH 7.4.
In data set [5] the target is T1, Human Recombinant Cathepsin K (Homo sapiens, UniProt P43235).
T1 sequence (P43235 115-329): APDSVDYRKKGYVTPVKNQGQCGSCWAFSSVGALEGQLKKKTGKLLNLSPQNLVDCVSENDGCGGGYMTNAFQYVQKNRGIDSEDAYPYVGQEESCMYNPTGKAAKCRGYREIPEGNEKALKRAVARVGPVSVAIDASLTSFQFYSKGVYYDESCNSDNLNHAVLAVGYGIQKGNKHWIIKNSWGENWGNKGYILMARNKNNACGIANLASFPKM
Put plainly: Cathepsin selectivity screening, Cat K (Z-Phe-Arg-AMC). It is filed as biochemical. The settings on record: Z-Phe-Arg-AMC substrate; Table 5; read-out: IC50 (μM) CatK.

The target of another data set is recombinant M^Pro (Severe acute respiratory syndrome coronavirus 2, UniProt P0DTD1). Put plainly: SARS-CoV-2 Mpro screening and IC50 determination (QS1 fluorogenic substrate, Drag assay). In kind it is biochemical. The settings on record: recombinant M^Pro.
Data set [6] can be described thus: in vitro. The settings on record: mouse, microsomes, pH 7.4.
A short description of data set [7]: physchem. Conditions: pH 7.4, aqueous buffer, kinetic from dmso stock.
For data set [8], the target named is Human Recombinant Cathepsin S (Homo sapiens, UniProt P25774). Put plainly: Cathepsin selectivity screening, Cat S (Z-Val-Val-Arg-AMC). It is filed as biochemical. The settings on record: Z-Val-Val-Arg-AMC substrate; Table 5; read-out: IC50 (μM) CatS.
In data set [9] the target is Human Recombinant Cathepsin B (Homo sapiens, UniProt P07858). Nature of the data set: Cathepsin selectivity screening, Cat B (Z-Phe-Arg-AMC). It is filed as biochemical.

Chain of Human Recombinant Cathepsin S (P25774 115-331): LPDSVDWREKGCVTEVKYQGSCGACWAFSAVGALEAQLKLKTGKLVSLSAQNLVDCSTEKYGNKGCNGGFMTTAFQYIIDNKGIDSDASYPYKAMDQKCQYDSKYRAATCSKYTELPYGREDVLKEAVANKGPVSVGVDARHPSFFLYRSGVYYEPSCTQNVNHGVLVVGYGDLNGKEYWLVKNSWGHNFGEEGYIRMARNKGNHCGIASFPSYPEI
Chain of Human Recombinant Cathepsin L (P07711 114-333): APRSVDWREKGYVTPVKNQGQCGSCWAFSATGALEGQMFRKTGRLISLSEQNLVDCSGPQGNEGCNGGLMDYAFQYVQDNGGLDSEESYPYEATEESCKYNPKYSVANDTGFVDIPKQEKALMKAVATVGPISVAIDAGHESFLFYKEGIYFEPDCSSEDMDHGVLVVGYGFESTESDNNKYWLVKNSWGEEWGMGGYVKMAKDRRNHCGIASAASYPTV

With `COc1ccc(-c2ccc(C(=O)N3C[C@H]4[C@@H]([C@H]3C(=O)N[C@H](C#N)C[C@@H]3CCNC3=O)C4(C)C)c(Cl)c2)cc1` [22e], the concentration for half-maximal inhibition (IC50) in [1] was over 10 µM; in [5], 2.08 µM; on recombinant M^Pro (IC50 (μM) M^Pro, 20 μM QS1 substrate, Table 5), 0.087 µM; on recombinant M^Pro (M^Pro IC50 (μM), Table 6), 0.087 µM; in data set [8], 1.03 µM; in data set [9] (Z-Phe-Arg-AMC substrate, Table 5, read-out: IC50 (μM) CatB) it was over 10 µM. In the data set “physchem [2]”, the log distribution coefficient (logD) is 3.4. Moreover, the CC50 in the data set “in vitro [3]” is over 100000 nM. In addition, the intrinsic clearance (microsomal CLint) at 1 μM was 183 µL/min/mg in the data set “in vitro [4]” and 450 µL/min/mg in “in vitro [6]”. For the same molecule, in “physchem [7]”, the solubility (kinetic) was determined as 97 µM (≈ 51.9 µg/mL). For the same molecule, the “activity against cathepsin B (in words)” value in data set [9] is reported as “completely abolished”.

The term IC50 denotes the midpoint of a concentration-inhibition curve. In general, logD refers to the decadic logarithm of the distribution of all forms, ionised or not, between an organic phase and buffer at a given pH. For orientation: microsomal CLint means a measure of how fast metabolising enzymes remove a compound, apart from limits set by blood flow. In general, kinetic solubility refers to solubility judged after dilution from a stock solution rather than from solid.
